Laboratory results taken from EP0019589A1, “Tripeptide derivatives and their use in a process for determining enzymes” (Pentapharm A.G., priority 1979, dated 1980).
Non-standard residues stand in square brackets, D forms with d. Residues, ends and D or L forms follow the SMILES beside them. *: point of attachment. Cha = N[C@@H](CC1CCCCC1)C(=O)O; dCha = N[C@H](CC1CCCCC1)C(=O)O; dChg = N[C@@H](C(=O)O)C1CCCCC1; dPhg = N[C@@H](C(=O)O)c1ccccc1; pNA = O=[N+]([O-])c1ccc(N*)cc1

How the values were obtained:
Type in all cases: biochemical
Humanplasmin = molecular target: T1, Humanplasmin (Homo sapiens, UniProt P00747); assay: Cleavage of chromogenic substrate by human plasmin; conditions: 1 CU-Einheit human plasmin, per min; Substratkonzentration 2 x 10^-4 molar
T1 construct: da bei der Aktivierung aus 1 Molekül Plasminogen 1 Molekül Plasmin entsteht
Experimental: 3. Bestimmung von Plasmin:
Man mischt 1,7 ml TRIS-Imidazol-Puffer (pH 7,5, Ionenstärke 0,2) bei 37°C mit 0,1 ml einer Lösung von Plasmin in 25%igem Glycerin und inkubiert die Mischung während 1 Min. bei 37°C. Dann gibt man der Mischung 0,2 ml einer wässrigen 2 x 10^-3 molaren Substxatlösung von 37°C zu und durchmischt das Ganze schnell. Man ermittelt dann kontinuierlich die pro Zeiteinheit aus dem Substrat freigesetzte Menge des Spaltproduktes R-NH2. Aus dem pro Min. ermittelten Wert berechnet man dann die Plasminaktivität pro ml Probe in mU nach der folgenden Formel: [formula] • ΔE = pro Min. freigesetzte Menge des Spaltproduktes • V = Totalvolumen des Testansatzes • v = Volumen der Probe • = Extinktionskoeffizient dividiert durch 1000
(§1) Bei der Messung des durch die enzymatische Hydrolyse des Substrates gebildeten Spaltproduktes RrNH2 geht man von der Voraussetzung aus, dass das Spaltprodukt ein UV-Spektrum besitzt, das von demjenigen des Substrates verschieden und in Richtung höherer Wellenlängen verschoben ist. Die Absorption des Substrates bei 405 nm ist praktisch Null. p-Nitroanilin als Spaltprodukt weist ein Absorptionsmaximum bei 380 nm und einen molaren Extinktionskoeffizienten von 13'200 auf. Bei 405 nm ist der Extinktionskoeffizient nur wenig niedriger, d.h. […] Der Grad der enzymatischen Hydrolyse des Substrates, welcher der Menge des abgespaltenen p-Nitroanilins proportional ist, lässt sich durch spektrophotometrische Messung bei 405 nm bestimmen. Auch bei Anwesenheit eines Ueberschusses an Substrat wird die Messung bei 405 nm nicht gestört.
(§2) Bei den Substraten, die als chromogene Gruppe eine 2-Naphthylamino-, 4-Methoxy-2-naphthylamino-, 4-Methyl-cumaryl-(7)-amino- oder 1,3-Di(methoxycarbonyl)-phenyl-(5)-amino-Gruppe enthalten, wird die Menge des Spaltproduktes R-NH2 durch Fluoreszenzspektrophotometrie gemessen. In einem aus Enzym, Puffer und Substrat bestehenden Testsystem misst man kontinuierlich das energieärmere emittierte Licht bei 400-470 nm, nachdem man das gebildete fluoreszierende Spaltprodukt mit energiereicherem Licht erregt hat. Die pro Zeiteinheit gebildete Menge Spaltprodukt ist ein Mass für die vorhandene Enzymaktivität. 1 µMol Spaltprodukt pro Minute entspricht definitionsgemäss 1 Enzym-Einheit, bezogen auf ein gegebenes Substrat.

Humanthrombin = molecular target: T2, Humanthrombin (Homo sapiens, UniProt P00734); assay: Cleavage of chromogenic substrate by human NIH thrombin; conditions: 1 NIH-Einheit human thrombin, per min; Substratkonzentration 2 x 10^-4 molar
T2 construct: Humanplasmin und hu-manem NIH-Thrombin
Source text: as §1, §2

Urinkallikrein = molecular target: T3, Urinkallikrein (Homo sapiens, UniProt P06870); assay: Cleavage of chromogenic substrate by urinary kallikrein in human urine; conditions: 1 ml human urine (pooled morning urine of healthy persons), per min; Substratkonzentration 2 x 10^-4 molar
T3 construct: 1 ml Urin und 1 ml TRIS-Imidazol-Puffer mit pH 7,9; from tissue; host or cells: human urine
Experimental: 1. Bestimmung von Urinkallikrein.
1 ml Urin und 1 ml TRIS-Imidazol-Puffer mit pH 7,9 und Ionenstärke 1,0 werden 5 Min. bei 37°C inkubiert undcänn zentrifugiert, um Sedimente zu entfernen.
In einer-Plastikküvette werden 1,4 ml dest. H20 von 37°C und 0,4 ml des Zentrifugats gut gemischt. Zu dieser Mischung gibt man 0,2 ml einer 2 x 10^-3 molaren wässrigen Substratlösung und durchmischt die Komponenten schnell. Dieses Gemisch wird genau 15 Min. bei 37°C inkubiert. Dann wird dem Reaktionsgemisch 0,2 ml Eisessig zugemischt, um die Enzymreaktion zu unterbrechen. Zur Farbmessung verwendet man eine Vergleichsprobe (Blindprobe), die aus den gleichen Komponenten zusammengesetzt ist, wobei jedoch der Eisessig vor Zugabe des Substrates zugesetzt wird, um die Enzymreaktion zu verhindern. Dann wird bei 405 nm photometrisch oder spektrophotometrisch die Menge der gebildeten farbigen Verbindung RNH 2 aus der Differenz zwischen der Blindprobe und der zu bestimmenden Probe ermittelt. Aus dem ermittelten Wert wird die Urinkallikreinaktivität im Urin nach der folgenden Formel berechnet: [formula] • Δ OD = Zunahme der optischen Dichte bei 405 nm während 15 Min. • V = Totalvolumen des Bestimmungsansatzes = 2,2 ml • 1000 = Umrechnungsfaktor zur Umwandlung von U in mU • F = Verdünnungsfaktor des Urins (2) • v = Volumen der Probe = 0,4 ml • ε = Extinktionskoeffizient dividiert durch 1000 = 10,4
Bei der oben beschriebenen Bestimmungsmethode misst man somit die Summe der Aktivitäten von Urinkallikrein und Urokinase. Um die genaue Urinkallikreinaktivität zu erhalten, muss man die Urokinaseaktivität abziehen, welche dadurch bestimmt werden kann, dass man in einem Vergleichsversuch durch Zugabe von 0,075 Einheiten Trypsininhibitor (Trypsininhibitor aus Rinderlunge) pro ml Puffer die Urinkallikreinaktivität vollständig hemmt und nur die Urokinaseaktivität misst.
as §1, §2

[1] = molecular target: T4, Submandibularis-Kallikrein (Homo sapiens, UniProt P06870); assay: Cleavage of chromogenic substrate by submandibular (glandular) kallikrein in human sputum; conditions: 1 ml human sputum, per min; Substratkonzentration 2 x 10^-4 molar
T4 construct: Man mischt 0,5 ml Sputum mit 2 ml TRIS-Imidazol-Puffer; from tissue; host or cells: human sputum
Experimental: 2. Bestimmung des Glandulärkallikreins im Sputum: • Man mischt 0,5 ml Sputum mit 2 ml TRIS-Imidazol-Puffer (Ionenstärke 1,0) und präinkubiert die Mischung 5 Min. bei 37°C. Das Inkubat wird zentrifugiert. In eine Testküvette wird 1,5 ml dest. H2O von 37°C vorgelegt und mit 0,25 ml des Zentrifugats versetzt. Die Komponenten werden gut gemischt. Dann wird 0,2 ml 2 x 10-^3 molare wässrige Substratlösung zugesetzt und gemischt. Dann wird bei 405 nm die Extinktions- änderung kontinuierlich mittels eines Schreibers während 5-10 Min. verfolgt. Aus dem ermittelten Δ OD pro Min. wird mittels der nachstehenden Formel die Kallikreinaktivität pro ml Sputum in mU errechnet: [formula] • F = 5 • V = 1,95 • v = 0,25 • 1 U (Einheit) = Enzymmenge, die während 1 Min. 1 µMol Substrat unter optimalen oder sonst festgelegten Bedingungen in Bezug auf pH, Ionenstärke, Temperatur und Substratkonzentration zu spalten vermag
as §1, with “gestört. […]” for “gestört.”

T3 sequence (P06870 25-262): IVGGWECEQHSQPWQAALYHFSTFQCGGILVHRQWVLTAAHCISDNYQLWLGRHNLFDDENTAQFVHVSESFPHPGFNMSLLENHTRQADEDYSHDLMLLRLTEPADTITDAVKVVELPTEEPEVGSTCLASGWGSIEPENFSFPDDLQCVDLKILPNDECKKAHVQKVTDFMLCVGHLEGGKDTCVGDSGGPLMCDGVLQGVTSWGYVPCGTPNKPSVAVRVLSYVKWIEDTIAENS
T4 sequence (P06870 25-262): as above
T1 sequence (P00747 581-810 limits assumed): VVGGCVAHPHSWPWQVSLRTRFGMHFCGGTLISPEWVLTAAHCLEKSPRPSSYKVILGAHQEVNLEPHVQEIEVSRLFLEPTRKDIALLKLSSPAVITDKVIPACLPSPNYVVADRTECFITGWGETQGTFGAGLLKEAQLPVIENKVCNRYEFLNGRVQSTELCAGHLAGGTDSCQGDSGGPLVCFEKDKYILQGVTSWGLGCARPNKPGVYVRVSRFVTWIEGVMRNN
T1 sequence (P00747 97-580 partner limits assumed): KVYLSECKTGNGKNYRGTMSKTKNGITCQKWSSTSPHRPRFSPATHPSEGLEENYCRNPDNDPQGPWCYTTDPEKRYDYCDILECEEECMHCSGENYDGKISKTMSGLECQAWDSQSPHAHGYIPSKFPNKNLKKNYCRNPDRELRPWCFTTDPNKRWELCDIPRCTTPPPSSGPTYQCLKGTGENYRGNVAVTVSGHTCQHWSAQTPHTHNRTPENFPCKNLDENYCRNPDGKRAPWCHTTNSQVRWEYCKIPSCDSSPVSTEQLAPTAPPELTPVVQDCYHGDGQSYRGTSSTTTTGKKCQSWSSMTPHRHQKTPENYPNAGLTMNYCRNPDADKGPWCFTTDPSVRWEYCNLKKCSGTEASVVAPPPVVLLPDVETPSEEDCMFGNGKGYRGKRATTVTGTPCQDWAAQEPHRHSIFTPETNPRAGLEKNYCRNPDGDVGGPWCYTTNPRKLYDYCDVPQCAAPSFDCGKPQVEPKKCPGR

| SMILES | Menge des durch 1 CU-Einheit Humanplasmin pro Min. freigesetzten Spaltproduktes R-NH2 in Nanomol (Humanplasmin) (Humanplasmin) [Nanomol] | Menge des durch 1 NIH-Einheit Thrombin pro Min. freigesetzten Spaltproduktes R-NH2 in Nanomol (Humanthrombin) (Humanthrombin) | Menge des durch 1 ml Humanurin pro Min. freigesetzten Spaltproduktes R-NH2 in Nanomol (Urinkallikrein) (Urinkallikrein) | Menge des durch 1 ml Humansputum pro Min. freigesetzten Spaltproduktes R-NH2 in Nanomol (Submandibularis-Kallikrein) [1] |
| --- | --- | --- | --- | --- |
| N=C(N)NCCC[C@H](NC(=O)[C@H](CC1CCCCC1)NC(=O)[C@H](N)C1CCCCC1)C(=O)Nc1ccc([N+](=O)[O-])cc1 [Beispiel 1, H-D-CHG-CHA-Arg-pNA.2HBr] (H-[dChg]-[Cha]-Arg-pNA) | 699 | 8,27 Nanomol | 0,84 Nanomol | 12,9 Nanomol |
| CC(C)C[C@H](NC(=O)[C@H](N)C1CCCCC1)C(=O)N[C@@H](CCCNC(=N)N)C(=O)Nc1ccc([N+](=O)[O-])cc1 [Beispiel 11, 2HBr.H-D-CHG-Leu-Arg-pNA] (H-[dChg]-Leu-Arg-pNA) | 381 | 33,9 Nanomol | 0,60 Nanomol | 11,6 Nanomol |
| CC(C)[C@@H](N)C(=O)N[C@@H](CC1CCCCC1)C(=O)N[C@@H](CCCNC(=N)N)C(=O)Nc1ccc([N+](=O)[O-])cc1 [Beispiel 12, 2HBr.H-D-Val-CHA-Arg-pNA] (H-[dV]-[Cha]-Arg-pNA) | 421 | 4,0 Nanomol | 2,75 Nanomol | 30,5 Nanomol |
| CC[C@@H](C)[C@@H](N)C(=O)N[C@@H](CC1CCCCC1)C(=O)N[C@@H](CCCNC(=N)N)C(=O)Nc1ccc([N+](=O)[O-])cc1 [Beispiel 13, 2HBr.H-D-Ile-CHA-Arg-pNA] (H-[dI]-[Cha]-Arg-pNA) | 446 | 7,44 Nanomol | 2,67 Nanomol | 36,6 Nanomol |
| CC(C)[C@@H](N)C(=O)N[C@@H](CC1CCCCC1)C(=O)N[C@@H](CCCCN)C(=O)Nc1ccc([N+](=O)[O-])cc1 [Beispiel 14, 2HBr.H-D-Val-CHA-Lys-pNA] (H-[dV]-[Cha]-Lys-pNA) | 505 | 0,35 Nanomol | 1,02 Nanomol | 6,7 Nanomol |
| CC[C@@H](C)[C@@H](N)C(=O)N[C@@H](CC1CCCCC1)C(=O)N[C@@H](CCCCN)C(=O)Nc1ccc([N+](=O)[O-])cc1 [Beispiel 15, 2HBr.H-D-Ile-CHA-Lys-pNA] (H-[dI]-[Cha]-Lys-pNA) | 440 | 0,39 Nanomol | 2,50 Nanomol | 23,1 Nanomol |
| N=C(N)NCCC[C@H](NC(=O)[C@H](Cc1ccccc1)NC(=O)[C@H](N)C1CCCCC1)C(=O)Nc1ccc([N+](=O)[O-])cc1 [Beispiel 16, 2HBr.H-D-CHG-Phe-Arg-pNA] (H-[dChg]-Phe-Arg-pNA) | 1200 | 17,1 Nanomol | 3,31 Nanomol | 32,2 Nanomol |
| N=C(N)NCCC[C@H](NC(=O)[C@H](CC1CCCCC1)NC(=O)[C@H](N)c1ccccc1)C(=O)Nc1ccc([N+](=O)[O-])cc1 [Beispiel 18, 2HBr.H-D-Ph'Gly-CHA-Arg-pNA] (H-[dPhg]-[Cha]-Arg-pNA) | 1200 | 4,53 Nanomol | 0,67 Nanomol | 8,5 Nanomol |
| N=C(N)NCCC[C@H](NC(=O)[C@@H]1CCCN1C(=O)[C@H](N)CC1CCCCC1)C(=O)Nc1ccc([N+](=O)[O-])cc1 [Beispiel 19, 2HBr.H-D-CHA-Pro-Arg-pNA] (H-[dCha]-Pro-Arg-pNA) | 1200 | 54,4 Nanomol | 1,40 Nanomol | 8,1 Nanomol |
| NCCCC[C@H](NC(=O)[C@H](CC1CCCCC1)NC(=O)[C@H](N)C1CCCCC1)C(=O)Nc1ccc([N+](=O)[O-])cc1 [Beispiel 20, 2HBr.H-D-CHG-CHA-Lys-pNA] (H-[dChg]-[Cha]-Lys-pNA) | 500 | 0,99 Nanomol | 0,28 Nanomol | 4,4 Nanomol |
| CC(C)C[C@H](NC(=O)[C@H](N)C1CCCCC1)C(=O)N[C@@H](CCCCN)C(=O)Nc1ccc([N+](=O)[O-])cc1 [Beispiel 21, 2HBr.H-D-CHG-Leu-Lys-pNA] (H-[dChg]-Leu-Lys-pNA) | 460 | 1,20 Nanomol | 0,40 Nanomol | 2,2 Nanomol |
